{"source": "patent US8299178B2", "about": "“Stable micelles formed with diblock copolymers of critical micelle concentration copolymer and temperature-sensitive copolymer” (National Tsing Hua University, priority 2009, dated 2012)", "key": {"HeLa cells [1]": {"system": "HeLa cells", "experiment": "MTT cytotoxicity test using HeLa cells", "format": "cell-based, human", "protocol": "The Dox activities of free Dox and Dox-mixed micelles were determined by performing cytotoxicity tests using HeLa cells (5×10^3 cell/mL). Cells that survived after incubation were estimated by a tetrazolium dye (MTT) assay. Dox-mPEG-b-P(NnPAAm-co-VIm) micelle was used for comparison. […] The IC50 of free Dox and Dox-loaded micelles are summary in Table 3.\nIntroducing mPEG-b-PLA into the micelle structure not only decreases mPEG-b-P(NIPAAm-co-VIm) quantity, decreases material cytotoxicity with a positive charge (i.e. VIm), but also stabilizes the micellar structure for biomedical use."}, "HeLa cells [2]": {"system": "HeLa cells", "experiment": "Internalization of Dox in HeLa cells by confocal laser scanning microscopy", "format": "cell-based, human", "settings": "Dox ca. 10 μg/mL, one hour of incubation", "protocol": "Dox accumulated in HeLa cells was localized using a Carl Zeiss LSM5 PASCAL confocal laser scanning microscopy (CLSM). The HeLa cells were seeded 1×10^5 per well on cover-slides for 24 h and were then treated with free Dox or Dox-mixed micelles. The concentration of Dox was ca. 10 μg/mL. Dox-mixed micelles were washed with PBS to remove untrapped Dox twice before use. After some time, the cells were washed twice with PBS, and then mounted on a slide with 4 wt % paraformaldehyde for CLSM observation. Fluorescence was observed by confocal microscope at 488 nm for excitation and an LP filter of 590 nm for Dox detection.\nThe time-dependent fluorescence intensity of Dox after Dox-mixed micelles incubated with human cervical epithelioid carcinoma (HeLa) cells was measured with free Dox (Dox-HCl) being used for comparison. […] Subsequently, the acidic endosomal compartment (ca. pH 5.5-5.0) induced Dox release due to mixed micelle dissociation by VIm protonation."}, "[3]": {"settings": "literature value; cited from earlier work"}}}
{"smiles": "COc1cccc2c1C(=O)c1c(O)c3c(c(O)c1C2=O)C[C@@](O)(C(=O)CO)C[C@@H]3O[C@H]1C[C@H](N)[C@H](O)[C@H](C)O1", "note": "[Free Dox, doxorubicin]", "values": [{"measurement": "Dox activity compared with the Dox-loaded micelles", "setting": "HeLa cells [1]", "value": "more potent activity"}, {"measurement": "localization of Dox in cells", "setting": "HeLa cells [2]", "value": "accumulated in both the nucleus and the cytoplasm"}, {"measurement": "pKa", "setting": "[3]", "value": "~7"}]}
